Bridge positions count the residues as written; N and C are the ends. Square brackets hold non-standard residues; d marks the D form. Peptide text beside a SMILES is read from it. I, II: the chains in the order shown. * marks the point of attachment. Succinyl(2R-iBu,4-NHOH) = CC(C)C[C@H](CC(=O)NO)C(=O)*; Hyp = O=C(O)[C@@H]1C[C@@H](O)CN1; Ahx = NCCCCCC(=O)O
Biological target: Human gelatinase
Test: Inhibition of trypsin-activated human gelatinase, fluorogenic Mca peptide substrate
Assay type: biochemical
Settings: substrate 10 μM, 37° C., 60 minutes, 5 minutes preincubation; read-out: IC50 against activated gelatinase
Protocol: Human gelatinase was activated with trypsin as follows. A reaction mixture was prepared in Tris buffer (pH 7.5) containing 20 mM Tris-HCl, 0.15 N NaCl, 4 μg/ml trypsin, 3 nM gelatinase and 5 mM CaCl2. The reaction mixture was incubated at 37° C. for 60 minutes and then soybean trypsin inhibitor was added at 44 μg/ml to quench the reaction.
The substrate was added at final 10 μM and was then further incubated at 37° C. for 60 minutes. The reaction was terminated by the addition of 750 μl of 0.1 N sodium acetate buffer (pH 4.0). The hydrolysis of the substrate was assessed by fluorescence, excitation at 328 nm and emission of 393 nm, with a Perkin-Elmer Fluorimeter LS-50B.

Row | IC50 | Molecule
1 | 2.3 nM | CC(C)C[C@H](CC(=O)NO)C(=O)N[C@@H](Cc1c[nH]c2ccccc12)C(=O)NCC(=O)N1CCC[C@H]1C(=O)N1C[C@H](O)C[C@H]1C(=O)NCC(=O)N1CCC[C@H]1C(=O)N1CCC[C@H]1C(=O)N[C@@H](CO)C(=O)NCC(=O)NCC(=O)NCCCCCC(=O)NCCCC[C@H](NC(=O)CCCCCNC(=O)CNC(=O)CNC(=O)[C@H](CO)NC(=O)[C@@H]1CCCN1C(=O)[C@@H]1CCCN1C(=O)CNC(=O)[C@@H]1C[C@@H](O)CN1C(=O)[C@@H]1CCCN1C(=O)CNC(=O)[C@H](Cc1c[nH]c2ccccc12)NC(=O)[C@@H](CC(=O)NO)CC(C)C)C(=O)N[C@@H](CCCCNC(=O)CCCCCNC(=O)CNC(=O)CNC(=O)[C@H](CO)NC(=O)[C@@H]1CCCN1C(=O)[C@@H]1CCCN1C(=O)CNC(=O)[C@@H]1C[C@@H](O)CN1C(=O)[C@@H]1CCCN1C(=O)CNC(=O)[C@H](Cc1c[nH]c2ccccc12)NC(=O)[C@@H](CC(=O)NO)CC(C)C)C(=O)NCC(N)=O [NHT1-L] (I: {Succinyl(2R-iBu,4-NHOH)}-WGP[Hyp]GPPSGG[Ahx]KKG-NH2 / II: {Succinyl(2R-iBu,4-NHOH)}-WGP[Hyp]GPPSGG[Ahx] / III: {Succinyl(2R-iBu,4-NHOH)}-WGP[Hyp]GPPSGG[Ahx]; amide I:12-II:C, I:13-III:C)
2 | 24 nM | I: {Succinyl(2R-iBu,4-NHOH)}-WGP[Hyp]GP[Hyp]GPPSGG[Ahx]KKG-NH2 / II: {Succinyl(2R-iBu,4-NHOH)}-WGP[Hyp]GP[Hyp]GPPSGG[Ahx] / III: {Succinyl(2R-iBu,4-NHOH)}-WGP[Hyp]GP[Hyp]GPPSGG[Ahx] (amide I:15-II:C, I:16-III:C) [NHT2-L]
